From article PMC3606118, “Salvianolic Acid A, a Novel Matrix Metalloproteinase-9 Inhibitor, Prevents Cardiac Remodeling in Spontaneously Hypertensive Rats” (PLoS ONE, 2013)
Where two headings read alike, the source gives them in different places.

Key:
[1] = test system: neonatal cardiac fibroblast; test: Soluble collagen secretion (picrosirius red assay); assay type: cell-based, Wistar rats; conditions: 24 h, p<0.05
Experimental: Primary cardiac fibroblast was obtained from neonatal rats and National Institutes of Health (NIH) Guide for the Care and Use of Laboratory Animals was followed throughout. Wistar rats (2–4 day old) were sacrificed by cervical dislocation; ventricles were minced and digested with 0.1% trypsin at 37°C for 8 min. The liberated cells were collected by centrifugations; non-digested chunk materials were further digested in 0.1% trypsin for an additional 8 min. This digestion procedure was repeated 3–4 times. All the liberated cells were pelleted by centrifugation at 1,000 rpm for 10 min, re-suspended in DMEM containing 10% fetal bovine serum (FBS), and cultured in a 100-mm noncoated culture flask at 37°C with 5% CO2 for 2 h. Adherent cardiac fibroblasts were collected and maintained in DMEM supplemented with 10% FBS, 100 U/mL penicillin, 100 µg/mL streptomycin [12]. Cardiac fibroblasts were treated by vehicle (Con); 200 nmol/L MMP-9 CD (MMP-9); 200 nmol/L MMP-9 CD plus 1 µmol/L SalA [MMP-9/SalA(1)]; or 200 nmol/L MMP-9 CD plus 10 µmol/L SalA [MMP-9/SalA(10)] for the following research. […]
Soluble collagen secreted by neonatal cardiac fibroblast was measured using picrosirius red assay with minor modification, [15]. […] 200 µL solution was transferred to 96 well plate for measuring absorbance at 595 nm using a UV spectrophotometer (Tecan GENios, Austria).

MMP-9 CD = target: T1, MMP-9 CD (Homo sapiens, UniProt P14780, DEL217-390); test: MMP-9 inhibition assay (thiopeptolide, enzyme kinetic analysis); assay type: biochemical
T1 construct: corresponding to residues 107–216 and 391–444; made in house
T1 sequence (P14780 with tags, fused parts or gaps DEL217-390 limits assumed): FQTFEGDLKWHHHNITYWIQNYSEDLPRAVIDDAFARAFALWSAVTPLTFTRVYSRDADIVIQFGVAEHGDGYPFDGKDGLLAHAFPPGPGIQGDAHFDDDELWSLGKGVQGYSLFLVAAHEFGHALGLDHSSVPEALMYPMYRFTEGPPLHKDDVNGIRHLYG
Experimental: Phenolic acids at the indicated concentrations were incubated with the reaction mixtures contained MMP-9 CD (15 nmol/L) and 5,5′-dithiobis-(2-nitrobenzoic acid) (1 mmol/L) at 4°C for 30 min. The reaction was initiated by the addition of thiopeptolide (Ac-Pro-Leu-Gly-S-Leu-Leu-Gly-OEt). Hydrolysis of thiopeptolide was monitored at 412 nm using Benchmark Plus™ microplate spectrophotometer (Bio-Rad) at room temperature. Kinetic analysis of phenolic acids against MMP-9 CD was calculated using double reciprocal plots of 1/V versus 1/[thiopeptolide]. The slope of every double reciprocal plot is the Km ^app/Vmax of enzyme at different compound concentration. Secondary plot was drawn through Km ^app/Vmax versus compound concentration. Km ^app is apparent value of Km; Ki is inhibition constant; Ki was calculated using the equation Ki = [Km/Vmax][compound]/(Km ^app/Vmax –Km/Vmax).

MMP-2 = target: T2, MMP-2 (Rattus norvegicus, UniProt P33436); test: In-gel gelatin zymography of SHR heart, MMP-2; assay type: in vivo, SHR rats; conditions: SalA i.p. everyday for 4 weeks
T2 construct: twenty µg protein from tissue; from tissue; host or cells: heart of spontaneously hypertensive rats (SHR)
T2 sequence (P33436 110-662): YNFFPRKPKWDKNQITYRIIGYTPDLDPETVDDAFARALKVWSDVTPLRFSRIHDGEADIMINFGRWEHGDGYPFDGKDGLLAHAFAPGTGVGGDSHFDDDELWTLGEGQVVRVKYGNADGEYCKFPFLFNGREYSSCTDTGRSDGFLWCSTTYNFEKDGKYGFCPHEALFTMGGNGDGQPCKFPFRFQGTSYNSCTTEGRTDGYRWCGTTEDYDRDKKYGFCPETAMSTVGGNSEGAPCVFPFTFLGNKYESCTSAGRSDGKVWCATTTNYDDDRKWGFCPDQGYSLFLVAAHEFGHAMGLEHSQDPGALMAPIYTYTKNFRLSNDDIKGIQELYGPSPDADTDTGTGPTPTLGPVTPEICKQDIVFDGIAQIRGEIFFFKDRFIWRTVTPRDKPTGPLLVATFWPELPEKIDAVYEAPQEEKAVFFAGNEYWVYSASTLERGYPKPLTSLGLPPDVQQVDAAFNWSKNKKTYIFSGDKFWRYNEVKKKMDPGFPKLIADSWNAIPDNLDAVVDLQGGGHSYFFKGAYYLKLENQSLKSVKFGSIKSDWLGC

[2] = test system: spontaneously hypertensive rats (SHR); assay type: in vivo; conditions: for HW/BW (heart weight divided by body weight): 0 mg 4.37±0.08; for collagen volume fraction: 0 mg/kg 4.61±0.31
Experimental: 2-month old male SHR rats were given rodent chow containing 8% NaCl 4 weeks before SaA treatment to the end of the experiment. Rats were divided into four groups (20 per group) and were injected intraperitoneally with saline or SalA everyday at the indicated dose for 4 weeks. The four groups were named as SalA (0 mg/kg), SalA (2.5 mg/kg), SalA (5 mg/kg), SalA (10 mg/kg) basing on the dose of SalA, respectively.
After ketamine-xylazine anesthesia (ketamine: xylazine, 60∶5 mg/kg, intramuscularly), heart, liver and kidney samples from experimental animals were fixed with 4% neutral-buffered paraformaldehyde for 24 h. Specimens were paraffin-embedded, sliced at 5 µm, and stained with haematoxylin and eosin. After staining, the sections were rinsed with distilled water, dehydrated, and mounted with Permount. Photomicrographs were taken using an Olympus BX51 microscope plus Olympus DP71 CCD camera (Olympus Corporation). Software Image-Pro Plus version 6.0 was used and approximately 150 cells per heart were measured to determine the average myocyte circumference. Paraffin-embedded slices were also stained with 0.1% picric sirius red (Sigma-Aldrich Inc, St Louis, USA) for fibrillar collagen. Collagen volume fraction (CVF) was expressed as a percentage of the total area of the field occupied by collagen staining.

[3] = 2.5 mg/kg i.p. everyday 4 weeks

SMILES: O=C(/C=C/c1ccc(O)c(O)c1/C=C/c1ccc(O)c(O)c1)O[C@H](Cc1ccc(O)c(O)c1)C(=O)O [SalA, salvianolic acid A]
- net collagen production in the presence of MMP-9 CD ([1]; 1 µmol/L SalA): significantly attenuated
- net collagen production in the presence of MMP-9 CD ([1]; 10 µmol/L SalA): significantly attenuated
- inhibition mode on MMP-9 (MMP-9 CD; double reciprocal plots): competitively
- Ki (MMP-9 CD; spectrophotometric enzyme kinetic assay, thiopeptolide substrate): 5.74 ± 1.15 µM
- MMP-2 activity in heart of SHRs (MMP-2): no regulation
- HW/BW (heart weight divided by body weight) [2, 3]: 4.36 ± 0.05 mg/g
- collagen volume fraction [2, 3]: 4.48±0.29%
- HW/BW (heart weight divided by body weight) ([2]; 5 mg/kg i.p. everyday 4 weeks): 4.37 ± 0.08 mg/g
- collagen volume fraction ([2]; 5 mg/kg i.p. everyday 4 weeks): 3.04±0.16%
- HW/BW (heart weight divided by body weight) ([2]; 10 mg/kg i.p. everyday 4 weeks, p<0.05): 4.10 ± 0.08 mg/g
- collagen volume fraction ([2]; 10 mg/kg i.p. everyday 4 weeks): 2.58±0.17%
- cardiomyocyte size (myocyte circumference) ([2]; SalA treatment versus SHR, p<0.001): significantly down-regulated
